From patent publication US20250026778A1 (TIUMBIO CO., LTD., priority 2021, published 2025) come the findings set out here.

For one experiment, the target named is T1, his-galectin-3 (Homo sapiens, UniProt P17931).
T1 construct: purchased Abcam
T1 sequence (P17931 whole entry): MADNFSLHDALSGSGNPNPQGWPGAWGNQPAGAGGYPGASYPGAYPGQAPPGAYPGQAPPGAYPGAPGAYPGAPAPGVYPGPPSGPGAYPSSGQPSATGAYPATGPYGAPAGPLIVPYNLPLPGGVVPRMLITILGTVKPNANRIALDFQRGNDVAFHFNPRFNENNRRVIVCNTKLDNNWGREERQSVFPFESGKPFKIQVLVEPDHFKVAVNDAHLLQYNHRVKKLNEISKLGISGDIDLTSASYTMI
As to the kind of experiment: TR-FRET assay (in vitro galectin-3 binding inhibitory activity test). The following applies: Table 1; compound at 20 μM; 60 nM his-galectin-3, 15 nM biotin-ASF; read-out: % Inhibitory activity (at 20 μM). Put shortly:
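Compound is premixed with his-galectin-3 (60 nM final), then biotin-ASF (15 nM), Tb anti-His antibody (2 nM) and streptavidin-d2 (20 nM) are added. After at least 3.5 hours at RT in HEPES/NaCl buffer with Tween 20 and BSA, TR-FRET is read at 615/665 nm. DMSO serves as the uninhibited control, ASF omission as background.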
`OC[C@H]1O[C@@]2(CCCN(Cc3cccc(Cl)c3)C2)[C@H](O)[C@@H](n2cc(-c3cc(F)c(F)c(F)c3)nn2)[C@H]1O` [Compound A143, (2R,3R,4S,5R,6R)-8-(3-chlorobenzyl)-2-(hydroxymethyl)-4-(4-(3,4,5-trifluorophenyl)-1H-1,2,3-triazol-1-yl)-1-oxa-8-azaspiro[5.5]undecane-3,5-diol]: the inhibition at 20 µM was less than 25%.
On the same count and under the same terms, as for `O=C(c1cccnc1)N1CCC[C@]2(C1)O[C@H](CO)[C@H](O)[C@H](n1cc(-c3cc(F)c(F)c(F)c3)nn1)[C@H]2O` [Compound A144, ((2R,3R,4S,5R,6R)-3,5-dihydroxy-2-(hydroxymethyl)-4-(4-(3,4,5-trifluorophenyl)-1H-1,2,3-triazol-1-yl)-1-oxa-8-azaspiro[5.5]undecan-8-yl)(pyridin-3-yl)methanone], the figure is less than 25%.
The same measure, in the same setting: as for `O=C(N[C@@H]1CCO[C@]12O[C@H](CO)[C@H](O)[C@H](n1cc(-c3cc(F)c(F)c(F)c3)nn1)[C@H]2O)C(F)(F)c1ccccc1` [Compound A147, N-((4R,5S,7R,8R,9S,10R)-8,10-dihydroxy-7-(hydroxymethyl)-9-(4-(3,4,5-trifluorophenyl)-1H-1,2,3-triazol-1-yl)-1,6-dioxaspiro[4.5]decan-4-yl)-2,2-difluoro-2-phenylacetamide], the figure is less than 25%; as for `O=C(Cc1ccc(Oc2ccccc2)cc1)N[C@@H]1CCO[C@]12O[C@H](CO)[C@H](O)[C@H](n1cc(-c3cc(F)c(F)c(F)c3)nn1)[C@H]2O` [Compound A148, N-((4R,5S,7R,8R,9S,10R)-8,10-dihydroxy-7-(hydroxymethyl)-9-(4-(3,4,5-trifluorophenyl)-1H-1,2,3-triazol-1-yl)-1,6-dioxaspiro[4.5]decan-4-yl)-2-(4-phenoxyphenyl)acetamide], 25 to 50%; as for `O=C(N[C@@H]1CCO[C@]12O[C@H](CO)[C@H](O)[C@H](n1cc(-c3cc(F)c(F)c(F)c3)nn1)[C@H]2O)c1ccc2cc(Cl)ccc2c1` [Compound A149, 6-chloro-N-((4R,5S,7R,8R,9S,10R)-8,10-dihydroxy-7-(hydroxymethyl)-9-(4-(3,4,5-trifluorophenyl)-1H-1,2,3-triazol-1-yl)-1,6-dioxaspiro[4.5]decan-4-yl)-2-naphthamide], 50 to 75%.
On the same count and under the same terms, as for `O=C(N[C@@H]1CCO[C@]12O[C@H](CO)[C@H](O)[C@H](n1cc(-c3cc(F)c(F)c(F)c3)nn1)[C@H]2O)c1cccc(Br)c1` [Compound A150, 3-bromo-N-((4R,5S,7R,8R,9S,10R)-8,10-dihydroxy-7-(hydroxymethyl)-9-(4-(3,4,5-trifluorophenyl)-1H-1,2,3-triazol-1-yl)-1,6-dioxaspiro[4.5]decan-4-yl)benzamide], the figure is more than 75%; as for `O=C(Cc1cccc(Br)c1)N[C@@H]1CCO[C@]12O[C@H](CO)[C@H](O)[C@H](n1cc(-c3cc(F)c(F)c(F)c3)nn1)[C@H]2O` [Compound A151, 2-(3-bromophenyl)-N-((4R,5S,7R,8R,9S,10R)-8,10-dihydroxy-7-(hydroxymethyl)-9-(4-(3,4,5-trifluorophenyl)-1H-1,2,3-triazol-1-yl)-1,6-dioxaspiro[4.5]decan-4-yl)acetamide], more than 75%.
Regarding `O=C(N[C@@H]1CCO[C@]12O[C@H](CO)[C@H](O)[C@H](n1cc(-c3cc(F)c(F)c(F)c3)nn1)[C@H]2O)c1cccc(C(F)(F)F)c1` [Compound A152], the inhibition at 20 µM lay within 50 to 75%.

Staying with this experiment, now noted: Table 2; compound at 20 μM; 60 nM his-galectin-3, 15 nM biotin-ASF; read-out: % Inhibitory activity (at 20 μM).
Consider `OC[C@H]1O[C@]2(OCC[C@H]2n2ccnn2)[C@H](O)[C@@H](n2cc(-c3cc(F)c(F)c(F)c3)nn2)[C@H]1O` [Compound A153, (4R,5S,7R,8R,9S,10R)-7-(hydroxymethyl)-4-(1H-1,2,3-triazol-1-yl)-9-(4-(3,4,5-trifluorophenyl)-1H-1,2,3-triazol-1-yl)-1,6-dioxaspiro[4.5]decane-8,10-diol], for which the inhibition at 20 µM was less than 25%.
As for `O=C(N[C@@H]1CCO[C@]12O[C@H](CO)[C@H](O)[C@H](n1cc(-c3cc(F)c(F)c(F)c3)nn1)[C@H]2O)c1sc2ccccc2c1Cl` [Compound A156, 3-chloro-N-((4R,5S,7R,8R,9S,10R)-8,10-dihydroxy-7-(hydroxymethyl)-9-(4-(3,4,5-trifluorophenyl)-1H-1,2,3-triazol-1-yl)-1,6-dioxaspiro[4.5]decan-4-yl)benzo[b]thiophene-2-carboxamide], the inhibition at 20 µM lay in the range of 50 to 75%.
Same read-out and setting: as for `O=C(N[C@@H]1CCO[C@]12O[C@H](CO)[C@H](O)[C@H](n1cc(-c3cc(F)c(F)c(F)c3)nn1)[C@H]2O)c1csc2ccccc12` [Compound A157, N-((4R,5S,7R,8R,9S,10R)-8,10-dihydroxy-7-(hydroxymethyl)-9-(4-(3,4,5-trifluorophenyl)-1H-1,2,3-triazol-1-yl)-1,6-dioxaspiro[4.5]decan-4-yl)benzo[b]thiophene-3-carboxamide], the figure is more than 75%.
Still for that read-out and setting: as for `O=C(N[C@@H]1CCO[C@]12O[C@H](CO)[C@H](O)[C@H](n1cc(-c3cc(F)c(F)c(F)c3)nn1)[C@H]2O)c1cccc2c1CCCC2` [Compound A158, N-((4R,5S,7R,8R,9S,10R)-8,10-dihydroxy-7-(hydroxymethyl)-9-(4-(3,4,5-trifluorophenyl)-1H-1,2,3-triazol-1-yl)-1,6-dioxaspiro[4.5]decan-4-yl)-5,6,7,8-tetrahydronaphthalene-1-carboxamide], the figure is 50 to 75%; as for `O=C(N[C@@H]1CCO[C@]12O[C@H](CO)[C@H](O)[C@H](n1cc(-c3cc(F)c(F)c(F)c3)nn1)[C@H]2O)c1cc2cccc(Cl)c2s1` [Compound A159, 7-chloro-N-((4R,5S,7R,8R,9S,10R)-8,10-dihydroxy-7-(hydroxymethyl)-9-(4-(3,4,5-trifluorophenyl)-1H-1,2,3-triazol-1-yl)-1,6-dioxaspiro[4.5]decan-4-yl)benzo[b]thiophene-2-carboxamide], 50 to 75%.
The same measure, in the same setting: the value for `O=C(N[C@@H]1CCO[C@]12O[C@H](CO)[C@H](O)[C@H](n1cc(-c3cc(F)c(F)c(F)c3)nn1)[C@H]2O)C1CCCc2ccccc21` (stereo partly drawn) [Compound A160, N-((4R,5S,7R,8R,9S,10R)-8,10-dihydroxy-7-(hydroxymethyl)-9-(4-(3,4,5-trifluorophenyl)-1H-1,2,3-triazol-1-yl)-1,6-dioxaspiro[4.5]decan-4-yl)-1,2,3,4-tetrahydronaphthalene-1-carboxamide] was 50 to 75%.
`O=C(N[C@@H]1CCO[C@]12O[C@H](CO)[C@H](O)[C@H](n1cc(-c3cc(F)c(F)c(F)c3)nn1)[C@H]2O)c1coc2ccccc12` [Compound A161, N-((4R,5S,7R,8R,9S,10R)-8,10-dihydroxy-7-(hydroxymethyl)-9-(4-(3,4,5-trifluorophenyl)-1H-1,2,3-triazol-1-yl)-1,6-dioxaspiro[4.5]decan-4-yl)benzofuran-3-carboxamide]: the inhibition at 20 µM is more than 75%.

The experiment is the same for the next values; noted with them: read-out: % Inhibitory activity (at 20 μM), Table 1; compound at 20 μM; 60 nM his-galectin-3, 15 nM biotin-ASF.
With `OC[C@H]1O[C@@]2(CCCN(Cc3ccccc3)C2)[C@H](O)[C@@H](n2cc(-c3cc(F)c(F)c(F)c3)nn2)[C@H]1O` [Compound A141, (2R,3R,4S,5R,6R)-8-benzyl-2-(hydroxymethyl)-4-(4-(3,4,5-trifluorophenyl)-1H-1,2,3-triazol-1-yl)-1-oxa-8-azaspiro[5.5]undecane-3,5-diol], the inhibition at 20 µM was less than 25%.
Still for that read-out and setting: the value for `OC[C@H]1O[C@@]2(CCCN(Cc3cccnc3)C2)[C@H](O)[C@@H](n2cc(-c3cc(F)c(F)c(F)c3)nn2)[C@H]1O` [Compound A142, (2R,3R,4S,5R,6R)-2-(hydroxymethyl)-8-(pyridin-3-ylmethyl)-4-(4-(3,4,5-trifluorophenyl)-1H-1,2,3-triazol-1-yl)-1-oxa-8-azaspiro[5.5]undecane-3,5-diol] was less than 25%.
Turning to `O=C(c1cccc(Cl)c1)N1CCC[C@]2(C1)O[C@H](CO)[C@H](O)[C@H](n1cc(-c3cc(F)c(F)c(F)c3)nn1)[C@H]2O` [Compound A145, (3-chlorophenyl)((2R,3R,4S,5R,6R)-3,5-dihydroxy-2-(hydroxymethyl)-4-(4-(3,4,5-trifluorophenyl)-1H-1,2,3-triazol-1-yl)-1-oxa-8-azaspiro[5.5]undecan-8-yl)methanone], the inhibition at 20 µM is less than 25%.
Still for that read-out and setting: as for `O=C(Cc1ccccc1)N[C@@H]1CCO[C@]12O[C@H](CO)[C@H](O)[C@H](n1cc(-c3cc(F)c(F)c(F)c3)nn1)[C@H]2O` [Compound A146, N-((4R,5S,7R,8R,9S,10R)-8,10-dihydroxy-7-(hydroxymethyl)-9-(4-(3,4,5-trifluorophenyl)-1H-1,2,3-triazol-1-yl)-1,6-dioxaspiro[4.5]decan-4-yl)-2-phenylacetamide], the figure is 25 to 50%.

The experiment is the same for the next values; noted with them: read-out: % Inhibitory activity (at 20 μM), Table 2; compound at 20 μM; 60 nM his-galectin-3, 15 nM biotin-ASF.
On to `OC[C@H]1O[C@]2(OCC[C@H]2n2cc(-c3ccccc3)nn2)[C@H](O)[C@@H](n2cc(-c3cc(F)c(F)c(F)c3)nn2)[C@H]1O` [Compound A154, (4R,5S,7R,8R,9S,10R)-7-(hydroxymethyl)-4-(4-phenyl-1H-1,2,3-triazol-1-yl)-9-(4-(3,4,5-trifluorophenyl)-1H-1,2,3-triazol-1-yl)-1,6-dioxaspiro[4.5]decane-8,10-diol], for which the inhibition at 20 µM lay within 25 to 50%.
For the molecule `COc1cccc(CN[C@@H]2CCO[C@]23O[C@H](CO)[C@H](O)[C@H](n2cc(-c4cc(F)c(F)c(F)c4)nn2)[C@H]3O)c1` [Compound A155, (4R,5S,7R,8R,9S,10R)-7-(hydroxymethyl)-4-((3-methoxylbenzyl)amino)-9-(4-(3,4,5-trifluorophenyl)-1H-1,2,3-triazol-1-yl)-1,6-dioxaspiro[4.5]decane-8,10-diol], the inhibition at 20 µM was less than 25%.

The experiment is the same for the next values; noted with them: read-out: % Inhibitory activity (at 20 μM), Table 3, found values; compound at 20 μM; 60 nM his-galectin-3, 15 nM biotin-ASF.
As for `O=C(Cc1ccccc1)N[C@@H]1CCO[C@]12O[C@H](CO)[C@H](O)[C@H](n1cc(-c3cc(F)c(F)c(F)c3)nn1)[C@H]2O` [Compound A146, N-((4R,5S,7R,8R,9S,10R)-8,10-dihydroxy-7-(hydroxymethyl)-9-(4-(3,4,5-trifluorophenyl)-1H-1,2,3-triazol-1-yl)-1,6-dioxaspiro[4.5]decan-4-yl)-2-phenylacetamide], the inhibition at 20 µM stood at 40.7%.
